According to patent publication US7453006B2, “Inositol derivatives for increasing chloride secretion and inhibiting inflammation” (Inologic, Inc., priority 2000, dated 2008):
“Also recorded” adds a separate entry of the source.

What was measured:
[1] = test system: CF Human Nasal Epithelial (CFHNE) cells; test: Cystic Fibrosis Human Nasal Epithelial Cell Assay (Isc, Ussing chambers); assay type: cell-based
Description: CF Human Nasal Epithelial (CFHNE) Cell Isolation and Proliferation
Nasal Polyps were surgically obtained from a CF patient at Children's Hospital (Seattle, Wash.), transported on ice in a sterile container containing a 1:1 mixture of Dulbecco's modification of minimum essential medium Eagle and Ham's F-12 nutrient medium (DMEM/F-12) (Irvine Scientific, Santa Ana, Calif.) supplemented with 100 U/mL penicillin, 0.1 mg/mL streptomycin, 10 mM HEPES, and 2 mM L-glutamine. The tissue samples were aseptically removed from the transport medium and washed (repeated 5 times) by suspending in 40 mL of Joklik's modification of minimum essential medium Eagle (JMEM) at 4° C., and centrifuging at 500 rpm. The supernatant was aspirated and discarded. The tissue was then transferred to JMEM containing 200 U/mL penicillin, 0.2 mg/mL streptomycin, 0.1 mg/mL gentamycin sulfate (Clonetics, San Diego, Calif.), and 0.1 μg/mL amphotericin-B (Clonetics), and 0.1% Protease, washed an additional two times, suspended in […] in a 10 cm tissue culture dish, and incubated at 4° C. for 24 hours. The tissue samples were then gently triturated, the connective tissue aseptically removed, and the remaining cell suspension centrifuged at 1000 rpm. The supernatant was aspirated and the pellet was resuspended in 10 mL proliferation media, consisting of Keratinocyte-Serum Free Medium (KSFM) (Gibco-BRL, Grand Island, N.Y.) containing 5 ng/ml EGF (Gibco), 50 μg/mL BPE (Gibco), 5 μg/mL insulin, 5 μg/mL transferrin, 5 μg/ml sodium selenite, 10 nM 3,3′,5-triiodo-L-thyronine, 200 nM hydrocortisone, 100 U/mL penicillin, 0.1 mg/mL streptomycin, and 2 mM L-glutamine. The cell suspension was transferred to 2.10 cm tissue culture dishes coated with 3 μg/cm^2 rat-tail collagen (Type I) (Becton-Dickinson, Bedford, Mass.), incubated at 37° C. in an humidified atmosphere of 5% CO2 and 95% air. The cells were allowed to grow for 6 days (˜70% confluence) with the media being replaced with fresh media every other day. The cells were then trypsinized using 0.025% trypsin-EDTA for 5 min. The cell suspension was collected, the trypsin deactivated with 10% Fetal Bovine Serum, and centrifuged at 1000 rpm for 5 min. The cells were then counted using an hemocytometer with a yield of 3×10^6 cells per dish. The supernatant was aspirated and the cells were resuspended in KSFM and plated at a density of 10^4 cells/cm^2.
CFHNE Cell Ussing Chamber Preparation
The CFHNE cells were prepared for Ussing Chamber studies using Snapwell permeable supports (0.4 μm pore size) (Corning Costar, Cambridge, Mass.) coated with 3 μg/cm^2 rat-tail collagen (type 1). Cells were plated at 9×10^3 cells/cm^2 in KSFM. After 2 days, an air-liquid interface (ALI) was initiated in DMEM/F-12 containing: 2% Fetal Clone III (Hyclone, Logan, Utah), 2.5 μg/mL insulin, 2.5 μg/mL transferrin, 2.5 μg/mL sodium selenite, 20 nM hydrocortisone, 1.5 μM epinephrine, 50 μg/mL BPE, 1 nM 3,3′,5-triiodo-L-thyronine, 3.3 nM All-trans retinoic acid, 250 nM ethanolamine, 250 nM O-phosporylethanolamine, 100 U/mL penicillin, 0.1 mg/ml streptomycin, and 2 mM L-glutamine. The CFHNE monolayers reached maximal resistance (˜200 Ω/cm^2) 5-7 days after initiation of ALI. All media/reagents, unless otherwise specified, were supplied by Sigma Chemical Co., St. Louis, Mo.

T84 cells = test: Colonic Epithelial Cell Assay (Isc across T84 monolayers, Ussing chambers); assay type: cell-based, human; conditions: for Isc response to carbachol / Isc response to thapsigargin following carbachol / inhibition of the Isc response to carbachol: 30 min preincubation, T84
Description: Cl^− secretion in colonic epithelial cells was measured as short circuit current (Isc) across T84 monolayers grown to confluence on Snap-wells (Costar) and mounted in Ussing chambers equipped with voltage clamps (Physiologic Instruments, San Diego). Data was acquired and analyzed using AAcquire and Analyze@ software (Physiologic Instruments). T84 cells (passages 18-48) were maintained as described previously in McRoberts, J. A. et al., “Cyclic AMP and Ca^2+-activated K^+ transport pathway in the apical membrane of a human colonic epithelial cell line,” J. Biol. Chem. 260:14163-14172 (1985). After […] of incubation on Snap-wells, monolayers had formed tight junctions and were preincubated with […] Bt2D-myo-Ins(3,4,5,6)P4/AM for 30-min. prior to mounting. An extracellular concentration of 200 uM corresponds to an intracellular concentration of 4 uM (Vajanaphnich, et al., “Long-term uncoupling of chloride secretion from intracellular calcium levels by Ins(3,4,5,6)P4,” Nature 371:711-714 (1994)). […]

[2] = test system: arachidonic acid-induced inflammation in mouse ears; test: arachidonic acid-induced inflammation in mouse ears; assay type: in vivo; conditions: for Ear Thickness: 20 nanomoles/ear topical 30 min before arachidonic acid, measured 60 min after arachidonic acid, control 56.5 ± 1.57
Description: Arachidonic Acid (Nu-Chek, Elysian, Minn. 56028); Indomethacin (stock=12.5 mg/mL acetone). Prednisolone (Sigma Chem, P6004) 20 mM dissolved in acetone; Animals: Female Balb/c mice (B&K laboratories) and Swiss-Webster hybrid (B& K Laboratory, Kent, Wash.)
The right ear of each mouse was used for the test compound. Unless otherwise indicated each compound was adjusted to 20 mM by dilution into DMSO or DMSO/5% Pluronic F127 as indicated and 1 or 2 microliters were applied to the test ear. Thirty minutes after each compound was applied, 4 mg arachidonic acid was applied (4 μL/ear; 2 μL/side) to both ears of each mouse. Measurements of edema were taken 60 min after the application of arachidonic acid with microcalipers (Oditest, Scientific Supply and Equipment) unless otherwise indicated. The results are shown in FIG. 15 as millimeters×10^−2 measured at the thickest point of each ear. Control measurements were performed on ears that were only treated with arachidonic acid.
Response to prednisolone (20 μL of 20 mM/ear; 10 μl/side) added 3 hrs prior 20′ to arachidonic acid or indomethacin (5 μg/ear) added 30 min prior to test compounds was determined. The results are shown in Table A, where the anti-inflammatory/inflammatory effects of 20 nanomoles/ear of the indicated compounds were tested as described in Methods. Each plus represents a change from control (arachidonic acid alone) of 2.5 mm×10^−2. Effects were compared with those of Indomethacin (400 nmols/ear).
Acute inflammation: Membrane permeant inositol polyphosphate analogs were administered topically and tested for inhibition of inflammatory symptoms induced by arachidonic acid on the ear of Swiss Webster mice.

[3] = macroscopic negative effects / side effects after ip and iv injection; assay type: in vivo, mouse; conditions: several weeks after treatment
[4] = extracellular concentration of 200 uM; cited from earlier work
[5] = preincubation with 200 μM, CFHNE monolayers

CCCOC1C(OP(=O)(OCOC(C)=O)OCOC(C)=O)C(OP(=O)(OCOC(C)=O)OCOC(C)=O)C(OP(=O)(OCOC(C)=O)OCOC(C)=O)C(OP(=O)(OCOC(C)=O)OCOC(C)=O)C1(CCC)OC(=O)CCC (racemic) [Compound A, rac-2-O-butyryl-2-C-propyl-1-O-propyl-myo-inositol 3,4,5,6-tetrakisphosphate-octakis(acetoxymethyl) ester]
Isc response to subsequent stimulation with ATP ([1]; 95 μM, CFHNE): appeared to prolong the response to subsequent stimulation with ATP; also recorded: prolonged increase in Isc following ATP addition | Isc, direct effect ([1]; 95 μM, CFHNE): little direct effect | Isc, direct effect ([1]; 200 μM, added basolaterally, CFHNE (passage 3)): prolonged increase in Isc comparable in amplitude to that stimulated with ATP | Isc response to carbachol (T84 cells; 400 μM): did not affect | Isc response to thapsigargin following carbachol (T84 cells; 400 μM): partially reversed the inhibition of thapsigargin induced chloride secretion; also recorded: partially restores the Isc response to thapsigargin following carbachol | Ear Thickness [2]: 52.5 ± 5.5 mm × 10^−2

CCCC12OC(C)(C)OC1C(OP(=O)(OCOC(C)=O)OCOC(C)=O)C(OP(=O)(OCOC(C)=O)OCOC(C)=O)C(OP(=O)(OCOC(C)=O)OCOC(C)=O)C2OP(=O)(OCOC(C)=O)OCOC(C)=O (racemic) [Compound B, rac-1,2-O-isopropylidene-2-C-propyl-myo-inositol 3,4,5,6-tetrakisphosphate-octakis(acetoxymethyl) ester]
negative component of the ATP effect on Isc ([1]; FIG. 11 legend: preincubation at 400 μM, CFHNE, average of duplicates): reverse the negative component of the ATP effect on Isc | negative phase of Isc following ATP [1, 5]: totally reversed the negative phase, instead causing a long term increase in Isc | transient increase in Isc following ATP [1, 5]: inhibited | Isc response to carbachol (T84 cells; 400 μM): prolongs; also recorded: prolonged increase in Isc response | Isc response to thapsigargin following carbachol (T84 cells; 400 μM): overcomes the inhibitory effect of carbachol pretreatment; also recorded: prolonged increase in Isc response | Isc, acute effect (T84 cells; applied acutely to the apical surface of T84 monolayers, one monolayer): triggers an increase in Isc; also recorded: large and prolonged increase in Isc | Ear Thickness [2]: 56.1 ± 2.1 mm × 10^−2

D-1-O-octyl-2-O-butyryl-myo-inositol 1,4,5,6-tetrakisphosphate-octakis-(propionoxymethyl)ester [INO-E3]
effectiveness by route of application ([2]; topically, intraperitoneally and orally): effective when applied topically, intraperitoneally and orally | macroscopic negative effects ([3]; ip injections up to 50 μg/animal): No macroscopic negative effects | macroscopic negative effects ([3]; iv injections of 20 μg/animal): No macroscopic negative effects

CCCC(=O)OC1C(OC(=O)CCC)C(OP(=O)(OCOC(C)=O)OCOC(C)=O)C(OP(=O)(OCOC(C)=O)OCOC(C)=O)C(OP(=O)(OCOC(C)=O)OCOC(C)=O)C1OP(=O)(OCOC(C)=O)OCOC(C)=O (centres unmarked) [Bt2D-myo-Ins(3,4,5,6)P4/AM]
intracellular concentration [4]: 4 µM

COCCOCOC12CCCCOC1C(OP(=O)(OCOC(C)=O)OCOC(C)=O)C(OP(=O)(OCOC(C)=O)OCOC(C)=O)C(OP(=O)(OCOC(C)=O)OCOC(C)=O)C2OP(=O)(OCOC(C)=O)OCOC(C)=O (centres unmarked) [Compound C, (5aa,6a,7b,8a,9b,9aa)-6,7,8,9-tetrakis[[bis(acetoxymethoxy)-phosphoryl]oxy]-5a-[(2′-methoxy)ethoxy]methoxy-decahydro-benzo[b]oxepin]
Isc response to carbachol (T84 cells; 200 μM): reduces the magnitude | inhibition of the Isc response to carbachol (T84 cells; 200 μM): approximately 50% | Isc response to carbachol (T84 cells; 400 μM): reduces the magnitude | Isc response to thapsigargin following carbachol (T84 cells; 400 μM): partially restores the response of the monolayers to thapsigargin | inhibition of the Isc response to carbachol (T84 cells; 400 μM): approximately 50% | Ear Thickness [2]: 50.0 ± 5.5 mm × 10^−2
